Results from US20230371510A1, “APPLICATION OF PYRROLE-2-CARB[…] CONTROLLING PLANT ROOT-KNOT NEMATODES” (Yunnan University, priority 2022, published 2023).
Converted amounts (≈) assume the structure as drawn. Like-named read-outs stand apart in the source and are kept apart here.

How the values were obtained:
Format in all cases: in vivo
Meloidogyne incognita = test: Nematicidal (insecticidal) mortality assay on second instar larvae in well plate; conditions: for mortality at 12.5 µg/mL: 12.5 μg/ml; for mortality at 12.5 µg/mL / mortality at 25 µg/mL / mortality at 50 µg/mL / mortality at 100 µg/mL / mortality at 200 µg/mL / mortality at 400 µg/mL: 25° C, read-out: Corrected mortality (%); for mortality at 25 µg/mL: 25 μg/ml; for mortality at 50 µg/mL: 50 μg/ml; for mortality at 100 µg/mL: 100 μg/ml; for mortality at 200 µg/mL: 200 μg/ml; for mortality at 400 µg/mL: 400 μg/ml; for LC50: calculated with SPSS 26.0
Protocol: (§1) 0.5 mg-1.5 mg of pyrrole-2-carboxaldehyde was dissolved in methanol and diluted with sterile distilled water as the test liquid. The dilution concentrations of each liquid medicine were 12.5 μg/ml, 25 μg/ml, 50 μg/ml, 100 μg/ml, 200 μg/ml and 400 μg/ml respectively, and the mass concentration of methanol in each liquid medicine was 5%. Water containing 5% methanol was used as a blank control.
The infected tomato roots with Meloidogyne incognita were washed with water, and the oocysts of Meloidogyne incognita were picked by a dissecting needle and placed in 0.4 M KCl solution. The oocysts were washed and disinfected in a 5 ml centrifuge tube with 4 ml sterile water (three times), 1 ml sterile penicillin-streptomycin double antibody solution and 3 ml 0.1% NaClO solution, and the supernatant was removed in each step by short centrifugation (8000 rpm for 30 seconds). The washed eggs were incubated in 0.4 M ZnCl2 solution for 48 h, and the second instar larvae were collected in a 1.5 ml centrifuge tube with a pipette and enriched by short centrifugation (5000 rpm for 30 seconds) for subsequent use.
200 μl of the above test liquid was added to a 20-well plate with 100-150 live nematodes and placed at 25° C. […] Method for identification of mortality: 1-5 drops of 5% NaCl solution were added to the wells of the treatment plate and observed after 2 minutes; Dead nematodes were stiff and unresponsive to stimulation with a needle, while surviving nematodes were curled or wriggled.
(§2) The whole experiment was repeated three times with the test liquid without samples as the control, and the average value was taken three times to calculate the corrected mortality.
(§3) Mortality %=(number of dead nematodes/(number of dead nematodes+number of surviving nematodes))×100%
(§4) Corrected mortality %=sample mortality−control mortality

Meloidogyne javanica = test: Nematicidal (insecticidal) mortality assay in well plate; conditions: 48 h
Protocol: as §1
(§5) In addition, root-knot nematodes such as Meloidogyne hapla, Meloidogyne javanica and Meloidogyne arenaria were also prepared for testing.
(§6) 200 μl of the above test liquid was added to a 20-well plate with 100-150 live nematodes and placed at 25° C. Subsequently, the nematodes were examined under an optical microscope at 12 h, 24 h and 48 h, respectively, to calculate the mortality. Method for identification of mortality: 1-5 drops of 5% NaCl solution were added to the wells of the treatment plate and observed after 2 minutes; Dead nematodes were stiff and unresponsive to stimulation with a needle, while surviving nematodes were curled or wriggled.
as §2, §3, §4

Meloidogyne arenaria = test: as above; conditions: 48 h
Protocol: as §1, §5, §6, §2, §3, §4

Meloidogyne hapla = test: as above; conditions: 48 h
Protocol: as §1, §5, §6, §2, §3, §4

O=Cc1ccc[nH]1 [pyrrole-2-carboxaldehyde]
mortality at 12.5 µg/mL (Meloidogyne incognita; 12 h): 6.99 ± 1.99% | mortality at 12.5 µg/mL (Meloidogyne incognita; 24 h): 16.6 ± 3.58% | mortality at 12.5 µg/mL (Meloidogyne incognita; 36 h): 24.9 ± 4.7% | mortality at 12.5 µg/mL (Meloidogyne incognita; 48 h): 30.3 ± 4.57% | mortality at 12.5 µg/mL (Meloidogyne incognita; 72 h): 36.1 ± 5.08% | mortality at 25 µg/mL (Meloidogyne incognita; 12 h): 15.8 ± 0.29% | mortality at 25 µg/mL (Meloidogyne incognita; 24 h): 26.5 ± 0.53% | mortality at 25 µg/mL (Meloidogyne incognita; 36 h): 36.3 ± 0.95% | mortality at 25 µg/mL (Meloidogyne incognita; 48 h): 42.1 ± 1.51% | mortality at 25 µg/mL (Meloidogyne incognita; 72 h): 48.5 ± 0.78% | mortality at 50 µg/mL (Meloidogyne incognita; 12 h): 22.4 ± 0.43% | mortality at 50 µg/mL (Meloidogyne incognita; 24 h): 36.63 ± 0.19% | mortality at 50 µg/mL (Meloidogyne incognita; 36 h): 53.4 ± 3.16% | mortality at 50 µg/mL (Meloidogyne incognita; 48 h): 56.6 ± 0.63% | mortality at 50 µg/mL (Meloidogyne incognita; 72 h): 63.2 ± 0.99% | mortality at 100 µg/mL (Meloidogyne incognita; 12 h): 24.3 ± 2.78% | mortality at 100 µg/mL (Meloidogyne incognita; 24 h): 38.7 ± 2% | mortality at 100 µg/mL (Meloidogyne incognita; 36 h): 62 ± 0.85% | mortality at 100 µg/mL (Meloidogyne incognita; 48 h): 83.2 ± 1.29% | mortality at 100 µg/mL (Meloidogyne incognita; 72 h): 88.27 ± 0.56% | mortality at 200 µg/mL (Meloidogyne incognita; 12 h): 34.2 ± 1.74% | mortality at 200 µg/mL (Meloidogyne incognita; 24 h): 64.3 ± 0.9% | mortality at 200 µg/mL (Meloidogyne incognita; 36 h): 79.29 ± 0.7% | mortality at 200 µg/mL (Meloidogyne incognita; 48 h): 93.3 ± 2.24% | mortality at 200 µg/mL (Meloidogyne incognita; 72 h): 94.5 ± 1.89% | mortality at 400 µg/mL (Meloidogyne incognita; 12 h): 47.5 ± 4.35% | mortality at 400 µg/mL (Meloidogyne incognita; 24 h): 77.42 ± 0.58% | mortality at 400 µg/mL (Meloidogyne incognita; 36 h): 93.2 ± 0.82% | mortality at 400 µg/mL (Meloidogyne incognita; 48 h): 98.01 ± 0.2% | mortality at 400 µg/mL (Meloidogyne incognita; 72 h): 99.26 ± 0.34% | LC50 (Meloidogyne incognita; 24 h): 84.7 µg/mL (≈ 891 µM) | LC50 (Meloidogyne incognita; 48 h): 30.7 µg/mL (≈ 323 µM) | LC50 (Meloidogyne javanica): 33.6 µg/mL (≈ 353 µM) | LC50 (Meloidogyne arenaria): 31 µg/mL (≈ 326 µM) | LC50 (Meloidogyne hapla): 31.6 µg/mL (≈ 333 µM)
